# Earlier results as cited in publication PMC4895201 (Journal of natural products, 2009).
# Tests used:
# [1] = tested on: breast and prostate xenografts; settings: compared with KF (3)
# [2] = tested on: epidermal growth factor receptor (ErbB family); settings: early research
Substance,"antitumor activity, in vitro and in vivo (various solid cell lines)",in vivo efficacy against breast and prostate xenografts [1],blockade of epidermal growth factor receptor (ErbB family) [2]
(4S)- methylhexanoic kahalalide F [isoKF (4)],significant in vitro and in vivo antitumor activity against various solid cell lines,enhanced efficacy against breast and prostate xenografts,–
kahalalide F [KF (3)],significant in vitro and in vivo antitumor activity against various solid cell lines,–,blocked the epidermal growth factor receptor (ErbB family)
